Experimental data: patent US20170349638A1, “COMPANION DIAGNOSTIC TOOL FOR PEPTIDOMIMETIC MACROCYCLES” (AILERON Therapeutics, Inc., priority 2016, published 2017)
Where a SMILES comes first, the peptide text is derived from it. Bridges are numbered along the chain shown (N, C = ends). [ ]: non-standard residue; d: D form. R8 = C=CCCCCCC[C@@](C)(N)C(=O)O; S5 = C=CCCC[C@](C)(N)C(=O)O

Target: GST-hDM2 (Homo sapiens, UniProt Q00987)
Experiment: Competition ELISA IC50 (nM) | GST-hDM2
From the text: Table printed on a drawing sheet, FIGURE 5A
Head of the field: Competition ELISA IC50 (nM) | GST-hDM2
The patent's description of the figure: FIGS. 5A-F describe the results of a cell viability assay, a competition ELISA assay, GRIP assay, Kd data, p21 activation assay, fluorescence polarization competition binding and circular helicity data for exemplary peptidomimetic macrocycles of the invention.
First copying reader's note: First part of a table that continues on FIGS. 5B-F; the print is coarse, several cells hold replicate values separated by; or , and some values sit slightly off their row line.
Where the first naming reader finds the target: head: Competition ELISA IC50 (nM) | GST-hDM2

Chain of GST-hDM2 (Q00987 whole entry, looked up): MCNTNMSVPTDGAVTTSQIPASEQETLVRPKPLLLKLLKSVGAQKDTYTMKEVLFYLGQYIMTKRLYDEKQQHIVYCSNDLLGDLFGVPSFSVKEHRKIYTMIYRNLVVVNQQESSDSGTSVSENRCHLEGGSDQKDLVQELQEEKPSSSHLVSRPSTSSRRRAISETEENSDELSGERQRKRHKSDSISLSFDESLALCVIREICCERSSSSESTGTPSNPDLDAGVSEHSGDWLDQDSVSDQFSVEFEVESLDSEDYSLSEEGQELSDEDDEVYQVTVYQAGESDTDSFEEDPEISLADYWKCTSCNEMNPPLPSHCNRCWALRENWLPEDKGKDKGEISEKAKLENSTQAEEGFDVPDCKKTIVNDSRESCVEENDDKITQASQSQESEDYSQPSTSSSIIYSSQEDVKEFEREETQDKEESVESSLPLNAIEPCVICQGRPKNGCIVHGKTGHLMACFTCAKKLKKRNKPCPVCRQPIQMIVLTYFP

## CC(=O)N[C@@H](CC(C)C)C(=O)N[C@@H](CO)C(=O)N[C@@H](CCC(N)=O)C(=O)N[C@@H](CCC(N)=O)C(=O)N[C@H](C(=O)N[C@@H](Cc1ccccc1)C(=O)N[C@]1(C)CCCCCCC=CCCC[C@@](C)(C(=O)N[C@@H](CCC(N)=O)C(=O)N[C@@H](CC(N)=O)C(N)=O)NC(=O)[C@H](CC(C)C)NC(=O)[C@H](CC(C)C)NC(=O)[C@H](CCCNC(=N)N)NC(=O)[C@H](Cc2c[nH]c3ccccc23)NC(=O)[C@H](CC(C)C)NC(=O)[C@H](CC(N)=O)NC1=O)[C@@H](C)O [SP-3, Ac-LSQQTF$r8NLWRLL$QN-NH2] (Ac-LSQQTF[R8]NLWRLL[S5]QN-NH2; staple 7-14 (inferred))
  IC50: 13.4 nM
